Experiments:
[1] = target: Human immunodeficiency virus type 1 protease (Human immunodeficiency virus 1, UniProt Q72874); assay: Inhibitory activity against HIV protease
CCRF-CEM [2] = assay: Antiviral activity against HIV-I 3b in CEM cells; format: functional, cell-based; details: Homo sapiens
[3] = Biological half-life was measured in plasma of rats; format: ADME, organism-based; details: rat
[4] = Oral bioavailability in rat; format: ADME, organism-based; details: in vivo
[5] = Maximum plasma concentration of compound present in rats at the dose of 37 mg/kg in 15 min; format: ADME, organism-based; design: dose 37 mg/kg; details: rat
[6] = target: Human immunodeficiency virus type 1 protease (Human immunodeficiency virus 1) (UniProt Q72874); assay: Compound was tested for inhibitory activity against HIV protease; details: concentration not given here
CCRF-CEM [7] = assay: Compound was tested for cellular toxicity against CEM cell line; format: functional, cell-based; details: Homo sapiens
CCRF-CEM [8] = assay: Antiviral activity against HIV-I 3b in CEM cells; No activity; format: functional, cell-based, Homo sapiens
[9] = Ratio Cmax/EC50 was determined; format: functional
[10] = Maximum plasma concentration of compound present in rats at the dose of 38 mg/kg in 15 min; format: ADME, organism-based; design: dose 38 mg/kg; details: rat

Row | Structure (SMILES) | Ki [1] | EC50 (CCRF-CEM [2]) | other results
1 | Cc1c(O)cccc1C(=O)N[C@@H](Cc1ccccc1)C[C@H](O)[C@H](Cc1ccccc1)NC(=O)c1ccccc1NC(=O)OCc1ccccn1 | 0.68 nM | > 1000 nM | 
2 | O=C(Nc1ccccc1C(=O)N[C@@H](Cc1ccccc1)[C@H](O)[C@H](O)[C@H](Cc1ccccc1)NC(=O)O[C@@H]1CCOC1)OCc1ccccn1 | 0.07 nM | 60 nM | 
3 | Cc1c(O)cccc1C(=O)N[C@@H](Cc1ccccc1)[C@@H](O)C[C@H](Cc1ccccc1)NC(=O)c1ccccc1NC(=O)OCc1ccccn1 | 0.06 nM | 30 nM | half-life [3]: 2.22 h; bioavailability [4]: 1%; Cmax [5]: 30 nM
4 | CCOC(=O)N[C@H](C(=O)N[C@@H](Cc1ccccc1)[C@@H](O)C[C@H](Cc1ccccc1)NC(=O)c1ccccc1NC(=O)OCc1ccccn1)[C@@H](C)CC | 0.02 nM | 50 nM | 
5 | CC(C)(C)OC(=O)N[C@@H](Cc1ccccc1)C[C@H](O)[C@H](Cc1ccccc1)NC(=O)c1ccccc1NC(=O)OCc1ccccn1 | 0.85 nM | 490 nM | 
6 | CCOC(=O)N[C@@H](C(=O)N[C@@H](Cc1ccccc1)[C@@H](O)C[C@H](Cc1ccccc1)NC(=O)c1ccccc1NC(=O)OCc1ccccn1)C(C)C | 0.03 nM | 7 nM | 
7 | Cc1nc(C(=O)N[C@@H](Cc2ccccc2)[C@@H](O)C[C@H](Cc2ccccc2)NC(=O)c2ccccc2NC(=O)OCc2ccccn2)cs1 |  | > 10000 nM | inhibition [6]: 61%
8 | O=C(Nc1ccccc1C(=O)N[C@@H](Cc1ccccc1)C[C@H](O)[C@H](Cc1ccccc1)NC(=O)OCc1cccnc1)OCc1ccccn1 | 0.01 nM | 350 nM | 
9 | Cc1c(O)cccc1C(=O)N[C@@H](Cc1ccccc1)[C@@H](O)[C@@H](O)[C@H](Cc1ccccc1)NC(=O)c1ccccc1NC(=O)OCc1ccccn1 | 0.09 nM | 20 nM | 
10 | O=C(Nc1ccccc1C(=O)N[C@@H](Cc1ccccc1)[C@H](O)[C@H](O)[C@H](Cc1ccccc1)NC(=O)c1ccno1)OCc1ccccn1 | 0.4 nM | 800 nM | 
11 | O=C(Nc1ccccc1C(=O)N[C@@H](Cc1ccccc1)C[C@H](O)[C@H](Cc1ccccc1)NC(=O)OCc1cscn1)OCc1ccccn1 | 0.62 nM | 600 nM | 
12 | CC(C)(C)OC(=O)N[C@@H](Cc1ccccc1)[C@H](O)[C@H](O)[C@H](Cc1ccccc1)NC(=O)c1ccccc1NC(=O)OCc1ccccn1 | 0.45 nM | 490 nM | IC50 (CCRF-CEM [7]): 21000 nM
13 | O=C(Nc1ccccc1C(=O)N[C@@H](Cc1ccccc1)[C@@H](O)C[C@H](Cc1ccccc1)NC(=O)c1cccc(O)c1)OCc1ccccn1 | 8.6 nM | > 10000 nM | 
14 | O=C(Nc1ccccc1C(=O)N[C@@H](Cc1ccccc1)C[C@H](O)[C@H](Cc1ccccc1)NC(=O)c1cscn1)OCc1ccccn1 | 4.7 nM | 3000 nM | 
15 | Nc1ccc(C(=O)N[C@@H](Cc2ccccc2)[C@H](O)[C@H](O)[C@H](Cc2ccccc2)NC(=O)c2ccccc2NC(=O)OCc2ccccn2)cc1 | 6.6 nM |  | EC50 (CCRF-CEM [8]): Not Active
16 | Cc1c(N)cccc1C(=O)N[C@@H](Cc1ccccc1)[C@@H](O)C[C@H](Cc1ccccc1)NC(=O)c1ccccc1NC(=O)OCc1ccccn1 | 0.12 nM | 60 nM | bioavailability [4]: < 2%
17 | O=C(Nc1ccccc1C(=O)N[C@@H](Cc1ccccc1)C[C@H](O)[C@H](Cc1ccccc1)NC(=O)OCc1cncs1)OCc1ccccn1 | 0.03 nM | 200 nM | Ratio [9]: > 30; half-life [3]: 8 h; bioavailability [4]: 30%
18 | O=C(Nc1ccccc1C(=O)N[C@@H](Cc1ccccc1)C[C@H](O)[C@H](Cc1ccccc1)NC(=O)c1ccno1)OCc1ccccn1 | 1.2 nM | 2000 nM | 
19 | O=C(Nc1ccccc1C(=O)N[C@@H](Cc1ccccc1)C[C@H](O)[C@H](Cc1ccccc1)NC(=O)O[C@@H]1CCOC1)OCc1ccccn1 | 0.04 nM | 30 nM | bioavailability [4]: 6%; Cmax [10]: 1040 nM
20 | Nc1cccc(C(=O)N[C@@H](Cc2ccccc2)[C@@H](O)C[C@H](Cc2ccccc2)NC(=O)c2ccccc2NC(=O)OCc2ccccn2)c1 | 0.4 nM | 250 nM | 
21 | O=C(Nc1ccccc1C(=O)N[C@@H](Cc1ccccc1)C[C@H](O)[C@H](Cc1ccccc1)NC(=O)c1cccc(O)c1)OCc1ccccn1 | 0.85 nM | 300 nM | 
22 | O=C(Nc1ccccc1C(=O)N[C@@H](Cc1ccccc1)[C@H](O)[C@H](O)[C@H](Cc1ccccc1)NC(=O)c1ccccc1NC(=O)OCc1ccccn1)OCc1ccccn1 | 0.07 nM | 60 nM | 
23 | O=C(Nc1ccccc1C(=O)N[C@@H](Cc1ccccc1)[C@H](O)[C@H](O)[C@H](Cc1ccccc1)NC(=O)c1cccc(O)c1)OCc1ccccn1 | 0.5 nM |  | EC50 (CCRF-CEM [8]): Not Active
24 | O=C(Nc1ccccc1C(=O)N[C@@H](Cc1ccccc1)[C@@H](O)[C@@H](O)[C@H](Cc1ccccc1)NC(=O)c1cccc(O)c1)OCc1ccccn1 | 1.7 nM | 900 nM | 
25 | Nc1ccc(C(=O)N[C@@H](Cc2ccccc2)[C@@H](O)C[C@H](Cc2ccccc2)NC(=O)c2ccccc2NC(=O)OCc2ccccn2)cc1 | 1.5 nM | 500 nM | 
26 | CC(C)(C)OC(=O)N[C@@H](Cc1ccccc1)[C@@H](O)C[C@H](Cc1ccccc1)NC(=O)c1ccccc1NC(=O)OCc1ccccn1 | 0.13 nM | 600 nM | 
27 | Cc1ccccc1C(=O)N[C@@H](Cc1ccccc1)[C@@H](O)C[C@H](Cc1ccccc1)NC(=O)c1ccccc1NC(=O)OCc1ccccn1 | 0.27 nM | 500 nM | 
28 | CC(C)(C)OC(=O)N[C@@H](Cc1ccccc1)[C@@H](O)[C@@H](O)[C@H](Cc1ccccc1)NC(=O)c1ccccc1NC(=O)OCc1ccccn1 | 0.13 nM | 400 nM | 

Reference: ChEMBL document CHEMBL1131273, “Unsymmetric nonpeptidic HIV protease inhibitors containing anthranilamide as a P2' ligand” (Bioorg Med Chem Lett, 1998)
